Measurements from patent publication US20080287525A1, “Pharmaceuticals for treating or preventing oral diseases” (HAWLEY & HAZEL (BVI) COMPANY LIMITED, priority 2007, published 2008).

What was measured:
IL-6 = experiment: Anti-inflammatory test in KB cells, LUMINEX, IL-6; format: cell-based, human; settings: KB cell supernatant, the larger the value, the stronger the anti-inflammatory ability
Procedure: (§1) Anti-inflammatory activity was assessed using the KB cell (the epidermis cancer cell in human oral cavity). During the experiment, the KB cell inoculated in the cultivating plate was treated with or without positive control or Mulberrofuran G. After the treatment, the supernatant of the cultivating medium was collected and stored in −80° C. refrigerator. Inflammation was assessed by measuring several inflammation markers: Prostaglandin E2 (PGE2) in the supernatant was detected by Enzyme-linked immunsorbent assay, and LUMINEX™ multifunctional liquid-phase chip analysis system was used for the detection of granulocyte monocyte colony stimulating factor (GM-CSF), tumor necrosis factor-alpha (TNF-α), and interleukins 1-beta and 6 ([…] and IL-6).
(§2) LUMINEX™ multifunctional liquid-phase chip analyses of GM-CSF, TNF-α, IL-1 and IL-6: The 96-well plate was enclosed with enclosing liquid for 30 minutes. Fluorescent microspheres were added into the 96-well plate after dilution. The standard and the samples to be measured were added, and incubated overnight at 4° C. The next day, the supernatant was discarded and 50 μL GM-CSF, TNF-α, IL-1β and IL-6 antibodies were added to each well. After being rinsed for 4 times, the 96-well plate was placed in a shaking table, which was in ambient temperature, to keep the plate away from light for one hour. […]

GM-CSF = experiment: Anti-inflammatory test in KB cells, LUMINEX, GM-CSF; format: cell-based, human; settings: KB cell supernatant, the larger the value, the stronger the anti-inflammatory ability
Procedure: as §1, §2

TNF-α = experiment: Anti-inflammatory test in KB cells, LUMINEX, TNF-α; format: cell-based, human; settings: KB cell supernatant, the larger the value, the stronger the anti-inflammatory ability
Procedure: as §1, §2

[1] = test system: Porphyromonas gingivalis (P. g) ATCC 33277; experiment: Micro-dilution MIC test, P. g; format: cell-based; settings: anaerobic, 37 °C, 18-24 h, unit not given, method gives concentrations in mg/L (ppm)
Procedure: (§3) A single colony was picked from the Trypticase Digested Soybean peptone agar blood plate (TSA5B) of ordinarily stored bacteria species and used to inoculate corresponding broth culture medium, which was cultivated in a microaerobic environment (P.g needs anaerobic cultivation) with 95% air, 5% CO2 at 37.0° C.±1.0° C., wherein S.m and S.sa were cultivated for 18-24 h, and the remaining five species were cultivated for 40-48 h. Then corresponding broth cultivate medium was used to adjust the turbidity of the bacteria suspension to 0.5 McFarland standard, equivalent to 1.0×10^8 CFU/mL.
(§4) The operating steps were:
(§5) a. Preparation of the stock solution of antibacterial pharmaceutical: 1% stock solution of various antibacterial pharmaceuticals was prepared with 100% pure ethanol as solvent. The prepared stock solution was filtered to eliminate bacteria, and was distributed into small portions to be used.
(§6) b. Range of measured concentration: the present experiment used 250 ppm as the ceiling measured concentration of the anti-bacterial pharmaceutical.
(§7) c. Measuring method: micro-dilution method. […]
(§8) The bacteria to be tested and standard bacteria were prepared using the same method as above. […] 0.12 mg/L, and the final inoculation quantity was about […] or 5×10^6 bacteria in each well. […]

[2] = test system: Streptococcus sanguis (S. sa) ATCC 10556; experiment: Micro-dilution MIC test, S. sa; format: cell-based; settings: 37 °C, 18-24 h, unit not given, method gives concentrations in mg/L (ppm)
Procedure: as §3, §4, §5, §6, §7, §8

IL-1β = experiment: Anti-inflammatory test in KB cells, LUMINEX, IL-1β; format: cell-based, human; settings: KB cell supernatant, the larger the value, the stronger the anti-inflammatory ability
Procedure: as §1, §2

[3] = test system: Streptococcus mutans (S. m) ATCC 25175; experiment: Micro-dilution MIC test, S. m; format: cell-based; settings: 37 °C, 18-24 h, unit not given, method gives concentrations in mg/L (ppm)
Procedure: as §3, §4, §5, §6, §7, §8

[4] = test system: Fusobacterium nucleatum subsp. Polymorphum (F. n) ATCC 10953; experiment: Micro-dilution MIC test, F. n; format: cell-based; settings: 37 °C, 18-24 h, unit not given, method gives concentrations in mg/L (ppm)
Procedure: as §3, §4, §5, §6, §7, §8

[5] = test system: Actinobacilus actinomycetemcomitans (A. a) ATCC 43717; experiment: Micro-dilution MIC test, A. a; format: cell-based; settings: 37 °C, 18-24 h, unit not given, method gives concentrations in mg/L (ppm)
Procedure: as §3, §4, §5, §6, §7, §8

[6] = test system: Actinomyces naeslundii (A. n) ATCC 12104; experiment: Micro-dilution MIC test, A. n; format: cell-based; settings: 37 °C, 18-24 h, unit not given, method gives concentrations in mg/L (ppm)
Procedure: as §3, §4, §5, §6, §7, §8

[7] = test system: Actinomyces viscosus (A. v) ATCC 27044; experiment: Micro-dilution MIC test, A. v; format: cell-based; settings: 37 °C, 18-24 h, unit not given, method gives concentrations in mg/L (ppm)
Procedure: as §3, §4, §5, §6, §7, §8

| SMILES | anti-inflammatory effect, IL-6 (IL-6) [%] | anti-inflammatory effect, GM-CSF (GM-CSF) [%] | anti-inflammatory effect, TNF-α (TNF-α) [%] | MIC, P. g ATCC 33277 [1] | MIC, S. sa ATCC 10556 [2] | anti-inflammatory effect, IL-1β (IL-1β) [%] | MIC, S. m ATCC 25175 [3] | MIC, F. n ATCC 10953 [4] | MIC, A. a ATCC 43717 [5] | MIC, A. n ATCC 12104 [6] | MIC, A. v ATCC 27044 [7] |
| --- | --- | --- | --- | --- | --- | --- | --- | --- | --- | --- | --- |
| CC1=C[C@H]2c3c(O)cc(-c4cc5ccc(O)cc5o4)cc3O[C@@]3(c4ccc(O)cc4O)Oc4cc(O)ccc4[C@H](C1)[C@@H]23 [Mulberrofuran G, 3aH-Benzo[3,4][2]benzopyrano[1,8-bc][1]-benzopyran-4,11-diol, 8a-(2,4-dihydroxphenyl)-1,8a,13b,13c-tetrahydro-6-(6-hydroxy-2-benzofuranyl)-2-methyl-, (3a,S,8aS,13bS,13cR)-] | 48 | 8 | 90 | 1.9 | 7.8 | 18 | 3.9 | 7.8 | 2.4 | 1.9 | 2.4 |
| Oc1cc(Cl)ccc1Oc1ccc(Cl)cc1Cl [Triclosan, reference compound] | 31 |  | 81 |  |  | 7 |  |  |  |  |  |
